# Counter-ions that a name gives are not always drawn. Like-named read-outs stand apart in the source and are kept apart here.
# Columns and labels:
# Chk-1 kinase = Chk-1 kinase (Homo sapiens (Human), UniProt O14757); test: Chk-1 Kinase Inhibiting Activity (33P-ATP filter assay, CHKtide substrate); format: biochemical; conditions: against Chk-1 kinase; read-out: IC50
# Method in brief: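 Full-length N-terminal GST-tagged human Chk-1 from insect cells, 0.5 nM final, with 20 μM peptide substrate and 33P-ATP in HEPES pH 7.5 buffer with 1% DMSO. Reaction ran 120 minutes at room temperature; incorporated radioactivity captured on P81 filters and counted for IC50.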
# MIA PaCa-2 cells = test: Gemcitabine Combination Cell Assay (Cell Titer Glo); format: cell-based; conditions: for 10xLS: approximate concentration of Chk1 inhibitor that results in a 10-fold reduction in the IC50 of gemcitabine alone; for 2xLS: approximate concentration of Chk1 inhibitor that results in a two-fold reduction in the IC50 of gemcitabine alone
# Method in brief: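 MIA PaCa-2 cells were treated 72 h with half-log dilutions of Chk1 inhibitor (top 3000 nM) and gemcitabine (top 100 nM), alone and in full matrix; viability by CellTiter-Glo luminescence. IC50s from four-parameter fit; Chk1 inhibitor concentrations giving two- and ten-fold lowering of gemcitabine IC50 were estimated.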
# [1] = Homo sapiens, Chk1 inhibitor alone, MIA PaCa-2 cells, 72 h, read-out: Chk1 IC50
# [2] = Homo sapiens, MIA PaCa-2, 72 h, read-out: Chk1 IC50 (nM)
# [3] = Chk1 inhibitor alone, MIA PaCa-2 cells, 72 h, read-out: Chk1 IC50
# Chk-1 kinase, sequence (O14757 whole entry): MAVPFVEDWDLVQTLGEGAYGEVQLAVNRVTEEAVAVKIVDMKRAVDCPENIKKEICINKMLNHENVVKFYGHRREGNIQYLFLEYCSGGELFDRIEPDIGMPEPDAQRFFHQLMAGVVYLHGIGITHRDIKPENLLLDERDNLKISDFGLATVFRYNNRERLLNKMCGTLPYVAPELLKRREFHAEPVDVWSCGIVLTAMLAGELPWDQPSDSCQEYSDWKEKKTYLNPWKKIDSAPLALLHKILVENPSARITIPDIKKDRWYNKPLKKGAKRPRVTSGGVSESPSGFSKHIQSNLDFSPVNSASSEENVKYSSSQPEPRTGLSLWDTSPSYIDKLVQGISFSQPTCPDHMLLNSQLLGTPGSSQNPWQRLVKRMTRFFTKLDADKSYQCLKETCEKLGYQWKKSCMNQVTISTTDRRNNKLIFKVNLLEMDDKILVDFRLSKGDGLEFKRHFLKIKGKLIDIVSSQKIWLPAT
SMILES,IC50 (Chk-1 kinase) [nM],IC50 (MIA PaCa-2 cells; [1]) [nM],"10xLS (MIA PaCa-2 cells; MIA PaCa-2 cells, 72 h) [nM]","2xLS (MIA PaCa-2 cells; MIA PaCa-2 cells, 72 h) [nM]",IC50 (MIA PaCa-2 cells; [2]) [nM],IC50 (MIA PaCa-2 cells; [3]) [nM]
"CC(C)Oc1cc(C2CCNCC2)ccc1-c1cc(Nc2cnc(C#N)cn2)n[nH]1 [Example 53, 5-[[5-[2-isopropoxy-4-(4-piperidyl)phenyl]-1H-pyrazol-3-yl]amino]pyrazine-2-carbonitrile]",3.1,2300,1000,100,,
"COc1cc(C2CCN(C)CC2)ccc1-c1cc(Nc2cnc(C#N)cn2)n[nH]1 [Example 11, 5-{5-[2-Methoxy-4-(1-methyl-piperidin-4-yl)-phenyl]-1H-pyrazol-3-ylamino}-pyrazine-2-carbonitrile hydrochloride]",0.048,,<100,3,214,
"N#Cc1cnc(Nc2cc(-c3ccc(C4CCNCC4)cc3)[nH]n2)cn1 [Example 56, 5-[[5-[4-(4-piperidyl)phenyl]-1H-pyrazol-3-yl]amino]pyrazine-2-carbonitrile]",183,> 3000,>3000,1000,,
"COc1cc(C2CCN(C(C)C)CC2)ccc1-c1cc(Nc2cnc(C#N)cn2)n[nH]1 [Example 61, 5-[[5-[4-(1-isopropyl-4-piperidyl)-2-methoxy-phenyl]-1H-pyrazol-3-yl]amino]pyrazine-2-carbonitrile]",0.1,251,100,2,,
"COc1cc(C2CCN(C)CC2)ccc1-c1cc(Nc2ccc(C#N)nc2)n[nH]1.Cl [Example 24, 5-[[5-[2-methoxy-4-(1-methyl-4-piperidyl)phenyl]-1H-pyrazol-3-yl]amino]pyridine-2-carbonitrile hydrochloride]",0.24,934,300,10,,
"COc1c(-c2cc(Nc3cnc(C#N)cn3)n[nH]2)ccc(C2CCN(C)CC2)c1Cl [Example 69, 5-[[5-[3-chloro-2-methoxy-4-(1-methyl-4-piperidyl)phenyl]-1H-pyrazol-3-yl]amino]pyrazine-2-carbonitrile]",7.9,2200,1000,100,,
"COc1cc(COC2CCN(C(C)C)CC2)ccc1-c1cc(Nc2cnc(C#N)cn2)n[nH]1 [Example 115, 5-[[5-[4-[(1-isopropyl-4-piperidyl)oxymethyl]-2-methoxy-phenyl]-1H-pyrazol-3-yl]amino]pyrazine-2-carbonitrile]",0.24,,<300,3,,515
"COc1cc(C2(F)CN(C)C2)ccc1-c1cc(Nc2cnc(C#N)cn2)n[nH]1 [Example 66, 5-[[5-[4-(3-fluoro-1-methyl-azetidin-3-yl)-2-methoxy-phenyl]-1H-pyrazol-3-yl]amino]pyrazine-2-carbonitrile]",0.14,111,30,<3,,
"COc1cc(CNCCN2CCOCC2)ccc1-c1cc(Nc2cnccn2)n[nH]1 [Example 10, (5-{2-methoxy-4-[(2-morpholin-4-yl-ethylamino)-methyl]-phenyl}-1H-pyrazol-3-yl)-pyrazin-2-yl-amine]",11,> 3000,>3000,1000,,
"CCN1CCC(OCc2ccc(-c3cc(Nc4cnc(C#N)cn4)n[nH]3)c(OC)c2)CC1 [Example 114, 5-[[5-[4-[(1-ethyl-4-piperidyl)oxymethyl]-2-methoxy-phenyl]-1H-pyrazol-3-yl]amino]pyrazine-2-carbonitrile]",0.2,,<300,3,,469
"COc1cc(C2CCN(C)CC2(F)F)ccc1-c1cc(Nc2cnc(C#N)cn2)n[nH]1 (stereo not shown) [Example 97, 5-[[5-[4-(3,3-Difluoro-1-methyl-4-piperidyl)-2-methoxy-phenyl]-1H-pyrazol-3-yl]amino]pyrazine-2-carbonitrile hydrochloride]",1.1,,300,10,1500,
"COc1cc(C2CCNCC2)ccc1-c1cc(Nc2cnc(C)cn2)n[nH]1 [Example 55, N-[5-[2-methoxy-4-(4-piperidyl)phenyl]-1H-pyrazol-3-yl]-5-methyl-pyrazin-2-amine]",227,> 3000,>3000,1000,,

# Further lines, with some results ahead:
IC50 (Chk-1 kinase) [nM],IC50 (MIA PaCa-2 cells; [1]) [nM],SMILES,"10xLS (MIA PaCa-2 cells; MIA PaCa-2 cells, 72 h) [nM]","2xLS (MIA PaCa-2 cells; MIA PaCa-2 cells, 72 h) [nM]",IC50 (MIA PaCa-2 cells; [2]) [nM],IC50 (MIA PaCa-2 cells; [3]) [nM]
0.0084,267,"CCN1CCC(CN(C)c2ccc(-c3cc(Nc4cnc(C#N)cn4)n[nH]3)c(OC)c2)CC1 [Example 145, 5-[[5-[4-[(1-ethyl-4-piperidyl)methyl-methyl-amino]-2-methoxy-phenyl]-1H-pyrazol-3-yl]amino]pyrazine-2-carbonitrile]",<100,<3,,
0.053,228,"CCN1CCN(c2cc(F)c(-c3cc(Nc4cnc(C#N)cn4)n[nH]3)c(OC)c2)CC1 [Example 136, 5-[[5-[4-(4-ethylpiperazin-1-yl)-2-fluoro-6-methoxy-phenyl]-1H-pyrazol-3-yl]amino]pyrazine-2-carbonitrile]",100,3,,
0.027,743,"COc1cc(CO[C@H]2CCN(C(C)C)C2)ccc1-c1cc(Nc2cnc(C#N)cn2)n[nH]1 [Example 139, 5-[[5-[4-[[(3S)-1-isopropylpyrrolidin-3-yl]oxymethyl]-2-methoxy-phenyl]-1H-pyrazol-3-yl]amino]pyrazine-2-carbonitrile]",300,10,,
0.016,132,"COc1cc(N2CCN(C)[C@H](C)C2)ccc1-c1cc(Nc2cnc(C#N)cn2)n[nH]1 [Example 92, 5-[[5-[4-[(3R)-3,4-dimethylpiperazin-1-yl]-2-methoxy-phenyl]-1H-pyrazol-3-yl]amino]pyrazine-2-carbonitrile]",30,<3,,
0.084,875,"COc1cc(C2CCN(CC(N)=O)CC2)ccc1-c1cc(Nc2cnc(C#N)cn2)n[nH]1 [Example 62, 2-[4-[4-[3-[(5-cyanopyrazin-2-yl)amino]-1H-pyrazol-5-yl]-3-methoxy-phenyl]-1-piperidyl]acetamide]",300,10,,
0.053,247,"COc1cc(CN(C)C(C)C)ccc1-c1cc(Nc2cnc(C#N)cn2)n[nH]1 [Example 100, 5-[[5-[4-[[isopropyl(methyl)amino]methyl]-2-methoxy-phenyl]-1H-pyrazol-3-yl]amino]pyrazine-2-carbonitrile]",<100,3,,
0.087,82,"COc1cc(NCC2CCN(C(C)C)CC2)ccc1-c1cc(Nc2cnc(C#N)cn2)n[nH]1 [Example 109, 5-[[5-[4-[(1-isopropyl-4-piperidyl)methylamino]-2-methoxy-phenyl]-1H-pyrazol-3-yl]amino]pyrazine-2-carbonitrile]",<30,<3,,
0.095,281,"COc1cc(OCC2CCNCC2)ccc1-c1cc(Nc2cnc(C#N)cn2)n[nH]1 [Example 36, 5-[[5-[2-methoxy-4-(4-piperidylmethoxy)phenyl]-1H-pyrazol-3-yl]amino]pyrazine-2-carbonitrile]",100,3,,
0.043,77,"CCN1CCC(CNc2ccc(-c3cc(Nc4cnc(C#N)cn4)n[nH]3)c(OC)c2)CC1 [Example 108, 5-[[5-[4-[(1-ethyl-4-piperidyl)methylamino]-2-methoxy-phenyl]-1H-pyrazol-3-yl]amino]pyrazine-2-carbonitrile]",30,<3,,
0.016,74,"COc1cc(N2CCN[C@H](C)C2)ccc1-c1cc(Nc2cnc(C#N)cn2)n[nH]1 [Example 82, 5-[[5-[2-methoxy-4-[(3R)-3-methylpiperazin-1-yl]phenyl]-1H-pyrazol-3-yl]amino]pyrazine-2-carbonitrile]",<30,<3,,
